Assay: RP, Waters ACQUITY UPLC HSS T3, 150 × 2 mm, 1.7 µm, 30 °C, 0.4 mL/min, estimated dead time 0.75 min; A: water + 0.2% formic acid; B: 2% water + 98% acetonitrile + 0.2% formic acid; gradient (min/%B) 0/0 2.5/0 7.5/10 10/100 12/100 18/0 25/0
Conditions: stereoisomer not certain

SMILES | LC retention time [min]
O=C(O)CCCCCCC(=O)O [suberic acid] | 9.43
O=C(O)CCCCCCCC(=O)O [azelaic acid] | 9.61
CC1(C)SC2C(NC(=O)C(C(=O)O)c3ccccc3)C(=O)N2C1C(=O)O (stereo not given) [carbenicillin] | 1.73
CC(=O)NC=CSC1=C(C(=O)O)N2C(=O)C(C(C)OS(=O)(=O)O)C2C1 (stereo not given) [epithienamycin E] | 4.43
O=C(C=Cc1ccc(O)c(O)c1)OC1CC(O)(C(=O)O)CC(O)C1O (stereo not given) [chlorogenic acid] | 9.09
N[C@@H](CC(=O)O)C(=O)O [L-aspartic acid] | 1.53
O[C@@H]1c2c(sc3ccccc23)C=C[C@@H]1O (relative stereo) [cis-1,2-dihydroxy-1,2-dihydrodibenzothiophene] | 1.64
O=C(O)[C@H](O)[C@@H](O)[C@H](O)CO [D-xylonic acid] | 1.69
O=P([O-])([O-])OP(=O)([O-])[O-] [diphosphate(4-)] | 1.47
O=C(O)/C=C/c1ccc(O[C@@H]2O[C@H](CO)[C@@H](O)[C@H](O)[C@H]2O)cc1 [4-O-beta-D-glucosyl-4-coumaric acid] | 9.11
O=C(O)CCC(=O)O [succinic acid] | 5.35
CC(=O)C(=O)O [pyruvic acid] | 4.6
NC(Cc1c[nH]c2ccccc12)C(=O)O (stereo not given) [tryptophan] | 8.87
O=C[C@H](O)[C@H](O)CO [D-erythrose] | 1.67
Nc1nc2c(ncn2C2OC(CO)C(O)C2O)c(=O)[nH]1 (stereo not given) [guanosine] | 6.32
O=C(O)CC(=O)O [malonic acid] | 2.64
C=CC#CC#CC1=CC=C(C#CC)SS1 [thiarubrine A] | 1.97
O=C(O)CC(O)C(=O)O (stereo not given) [malic acid] | 2.44
O=C(CO)COP(=O)(O)O [glycerone phosphate] | 9.3
O=C(O)C=CC(=O)O [fumaric acid] | 2.46
OCC1OC(OC2(COC3(CO)OC(CO)C(O)C3O)OC(CO)C(O)C2O)C(O)C(O)C1O (stereo not given) [1-kestose] | 1.88
O=C(O)c1ccco1 [2-furoic acid] | 4.46
O=C(CO)CO [glycerone] | 3.02
COC(=O)[C@@H](N)Cc1ccc(O)cc1 [methyl L-tyrosinate] | 10.7

SMILES | LC retention time [min]
C[C@H]([NH3+])C(=O)[O-] [L-alanine] | 1.44
C=CC=C(O)C(=O)O [cis-2-hydroxypenta-2,4-dienoic acid] | 1.68
O=C([O-])C(O)C(O)C(O)C(O)C(=O)[O-] (stereo not given) [glucarate(1-)] | 1.57
NC(=O)C[C@H](N)C(=O)O [L-asparagine] | 1.48
CC[C@H](C)[C@H](N)C(=O)O [L-isoleucine] | 5.34
O=C(O)C1OC(OC2C(C(=O)O)OC(O)C(O)C2O)C(O)C(O)C1O (stereo not given) [digalacturonic acid] | 1.58
NC(CCC(=O)O)C(=O)O (stereo not given) [glutamic acid] | 1.62
C#CC1(OC(C)=O)CCC2C3CCC4=CC(=O)CCC4C3CCC21C (stereo not given) [norethindrone acetate] | 10.5
Nc1ncnc2c1ncn2[C@@H]1O[C@H](CSCC[C@H]([NH3+])C(=O)[O-])[C@@H](O)[C@H]1O [S-adenosyl-L-homocysteine] | 1.92
CC(=O)OC1CC(C)C(C=O)C2(O)C1C(C)(C)CC2(C)C=O (stereo not given) [botrydial] | 13.5
OCC=Cc1ccc(O)cc1 [4-hydroxycinnamyl alcohol] | 1.62
Nc1ncnc2c1ncn2C1OC(CO)C(O)C1O (stereo not given) [adenosine] | 6.01
O=C(O)[C@H](O)[C@@H](O)[C@H](O)[C@H](O)COP(=O)(O)O [6-phospho-D-gluconic acid] | 1.55
N#CCC(N)C(=O)O (stereo not given) [3-cyanoalanine] | 1.51
O=C(O)[C@H](O)[C@@H](O)[C@H](O)[C@H](O)CO [D-gluconic acid] | 1.61
O=C(O)CCCCC1CCSS1 [(R)-lipoic acid] | 2.28
O=C(O)C=Cc1ccc(O)cc1 [4-coumaric acid] | 8.99
O=C(O)C=Cc1ccc(O)c(OC2OC(CO)C(O)C(O)C2O)c1 (stereo not given) [Caffeic acid 3-glucoside] | 8.96
O=c1[nH]cnc2nc[nH]c12 [hypoxanthine] | 1.75
O=c1ccn(C2OC(CO)C(O)C2O)c(=O)[nH]1 (stereo not given) [uridine] | 5.79
CS(=O)(=O)CCC(N)C(=O)O (stereo not given) [methionine sulfone] | 1.9
OCC1OC(OC2OC(CO)C(O)C(O)C2O)C(O)C(O)C1O (stereo not drawn) [alpha,alpha-trehalose] | 1.58
CCCCCCCCCCCCOCCOCCOCCOCCOCCO [pentaethylene glycol monododecyl ether] | 11.8
O=C1CC[C@@H](C(=O)O)N1 [5-oxo-L-proline] | 4.72

SMILES | LC retention time [min]
CC(C)CC(=O)C(=O)O [4-methyl-2-oxopentanoic acid] | 9.46
C[C@](O)(CO)[C@H](O)COP(=O)(O)O [2-C-methyl-D-erythritol 4-(dihydrogen phosphate)] | 1.64
CC(=O)OC(C)(C)C1CCC2(C)COC3(C)C=COC23C1 (stereo not given) [AC1L9CQ2] | 11.6
O=C(O)C(O)CO (stereo not given) [glyceric acid] | 1.92
O=C(COP(=O)(O)O)Cc1cnc[nH]1 [3-(imidazol-4-yl)-2-oxopropyl dihydrogen phosphate] | 2.09
O=C(O)C1CCCCN1 (stereo not given) [pipecolic acid] | 2.79
COc1c2ccoc2c(OC)c2oc(=O)ccc12 [isopimpinellin] | 1.66
NC(=O)NC1NC(=O)NC1=O (stereo not given) [allantoin] | 1.76
C[N+](C)(C)CC(=O)[O-] [glycine betaine] | 1.57
NC(Cc1cnc[nH]1)C(=O)O (stereo not given) [histidine] | 1.43
O=C(O)CCC(=O)C(=O)O [2-oxoglutaric acid] | 3.04
O=C(O)C(=O)[C@H](O)COP(=O)(O)O [(R)-3-hydroxy-2-oxo-4-phosphonooxybutanoic acid] | 9.3
CC1=CC2=CC(C)CC23OC(=C(C)C3=O)CC(C)(C)C=CC1=O (stereo not given) [jatrophone] | 10.2
O=C(O)C1OC(O)C(O)C(O)C1O (stereo not given) [Glucuronic Acid] | 1.61
CC(C=CC1(O)C(C)=CC(=O)CC1(C)C)=CC(=O)O (single isomer, unassigned; (+)) [(+)-abscisic acid] | 10.1
CC(C(=O)[O-])=C(C)C(=O)[O-] [dimethylmaleate(2-)] | 1.67
O=C1O[C@H](CO)[C@@H](O)[C@H](O)[C@H]1O [D-glucono-1,5-lactone] | 2.02
O=C(O)c1ccc(O)cc1 [4-hydroxybenzoic acid] | 9.88
O=C(O)C=C(CC(=O)O)C(=O)O [cis-aconitic acid] | 4.46
O=P(O)(O)OCC1OC(CO)(OC2OC(CO)C(O)C(O)C2O)C(O)C1O (stereo not given) [sucrose 6(F)-phosphate] | 1.81
O=C(O)c1nc2[nH]c(=O)[nH]c(=O)c2[nH]1 [xanthine-8-carboxylic acid] | 4.71
O=P(O)(O)OC(CO)CO [glycerol 2-phosphate] | 1.53

Reference: the RepoRT retention time repository (doi:10.1038/sdata.2014.29)
